Results taken from PubChem BioAssay AID624456 (Sanford-Burnham Center for Chemical Genomics, 2012).

Test system: compound stability in 1x PBS, percent remaining
Assay: compound stability in phosphate-buffered saline, ADME assay, biochemical, 1x PBS, with and without 50% ACN, set 2 (AID 624456);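 note: percent left after two days of incubation at room temperature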
[1] = measured here: stability in PBS with 50% ACN

Compound	stability [%]	stability [1] [%]
CC(C)C(=O)NC(c1ccco1)c1ccc2cccnc2c1O (stereo not given)	92.9	100
COc1cccc(-c2nc(-c3ccc(NC(=O)Cc4ccccc4OC)cc3)no2)c1	81.5	90.4
Cc1ccc(C(=O)n2c3ccccc3c3ccccc32)cc1	77.2	74.6
COC(=O)c1ccccc1NC(=O)c1ccc(F)cc1	11.2	93.4
Cc1ccc(S(=O)(=O)NCc2ccc(C(=O)NCCN(Cc3ccccc3)C(C)C)cc2)cc1	84.8	100
Cc1ccc(-n2c(N)c(C#N)c(-c3ccccc3)c(C#N)c2=O)cc1	81.4	98.2
C/C=C/Cn1c(SCCCc2ccccc2)nc2c1c(=O)[nH]c(=O)n2C	73.4	100
Cc1ccnc(NC(=O)CCCOc2cc(=O)n(C)c3ccccc23)c1	93.8	100
CCOC(=O)C(C)Oc1cccc2c(=O)n(CC(=O)Nc3ccc4c(c3)OCCO4)ccc12 (stereo not given)	56.1	94.6
c1ccc2c(Nc3nnc(-c4ccncc4)s3)cccc2c1	84.2	100
N#C/C(=C\c1ccc([N+](=O)[O-])o1)c1nc2ccccc2[nH]1	52.4	100
COc1ccccc1N(/N=C1\Sc2ccccc2C1=O)C(C)=O	81.6	88.1
CSc1nc(-c2ccc(C)cc2)nc(C(Cl)Cl)n1	0.45	96.5
Cc1cc2c(s1)c1cnn(Cc3ccccc3F)c(=O)c1n2C	20.4	86.7
Cc1ccc(S(=O)(=O)C(c2ccccc2)c2c(C)noc2C)cc1 (stereo not given)	83.8	99.3
COc1ccc(C2c3c(ncn(CCN4CCOCC4)c3=N)Oc3ccc4ccccc4c32)cc1OC (stereo not given)	76.7	85.6
Cn1cnc([N+](=O)[O-])c1Sc1ncnc2nc[nH]c12	31.9	
CCCc1cc(C(=O)N(C2CCCCC2)C2CCCCC2)no1	6.53	76.7
CCc1nnc(NC(=O)c2ccc(NS(=O)(=O)c3ccccc3)cc2)s1	86	95.2
Cn1nnnc1Sc1ncnc2scc(-c3ccccc3)c12	85	95.1
COc1ccc(CNCc2cccc3ccccc23)cc1	50.6	100

Compound	stability [%]	stability [1] [%]
COc1ccc(C2CC(c3ccccc3)=NN2c2ccc(S(N)(=O)=O)cc2)cc1 (stereo not given)	58.2	90.9
COc1ccc(N(C(=O)CCl)C(C(=O)NCCc2ccccc2)c2cccs2)cc1Cl (stereo not given)	71.8	100
Cc1ccc(C)c(NS(=O)(=O)c2cc(C(=O)Nc3ccccc3-c3ccccc3)ccc2Cl)c1	34.6	98
COc1ccc(OC)c(S(=O)(=O)Nc2cnc3ccccc3c2)c1	89.6	93
Cc1ccc(NC(=O)CCC(=O)N/N=C/c2ccc([N+](=O)[O-])o2)cc1C	51.3	65.6
O=[N+]([O-])c1ccc(CN2CCOCCOCCN(Cc3ccc([N+](=O)[O-])cc3)CCOCC2)cc1	96.1	100
Cc1ccc(S(=O)(=O)n2c(N)nc3ccccc32)cc1	97.8	98.8
CCOc1ccc(-c2nc(-c3ccncc3)no2)cc1OCC	59.9	100
O=C(O)CCC(NS(=O)(=O)c1ccc(-c2ccccc2)cc1)C(=O)O (stereo not given)	100	100
COc1ccc(S(=O)(=O)n2nc(OC(=O)c3ccccc3)cc2N)cc1	11.1	91.8
CN(C)c1nc(N)nc(CSc2nnnn2-c2cccc3ccccc23)n1	75.8	94.6
O=C(COC(=O)C12CC3CC(CC(C3)C1)C2)NCc1ccco1	49.6	88.2
COc1ccc(OC)c(-c2nnc3n2N=C(c2ccc(OC)c(OC)c2)CS3)c1	89.6	99.6
O=C(O)c1ccc(N2C(=O)/C(=C/c3ccc(-c4ccc([N+](=O)[O-])cc4)o3)C=C2c2ccccc2)cc1	14.5	62.9
O=C(c1ccccn1)N(Cc1cccs1)C1(C(=O)NC2CCCCC2)CCCCC1	93.9	97.5
O=C(COc1ccccc1Br)NCCc1nc2ccccc2[nH]1	92.1	100
CCCc1nc2c(=O)n(C)c(=O)nc-2n(C)n1	100	100
Cc1nc(SCc2nc3ccccc3[nH]2)c2oc3ccccc3c2n1	74.2	84.7
CS(=O)(=O)c1ccc(C(=O)OCC(=O)NC23CC4CC(CC(C4)C2)C3)cc1[N+](=O)[O-]	12.8	100
C=CCn1c(SCC(=O)c2ccc(O)c(O)c2)nnc1-c1ccccc1OC	82.6	100
COc1nc(-c2ccccc2)nnc1-c1ccccc1	10.1	98.9

Further lines, results first:

stability [%]	stability [1] [%]	Compound
79.5	86.7	CCCC(=O)Nc1cccc(NC(=O)c2ccccc2Br)c1
78.5	100	CCCN1CNc2c(c(=O)[nH]c(=S)n2CCc2ccc(OC)c(OC)c2)C1
100	100	O=C1NCCCc2c1oc1ccc(O)cc21
15.1	96.7	Cc1ccc(N2CCN(S(=O)(=O)N3CCCCC3)CC2)c(C)c1
6.42	93.2	c1ccc(CC2CCN(c3ncnc4sccc34)CC2)cc1
50.8	100	O=C1C2CC=CCC2C(=O)N1c1n[nH]c(-c2ccccc2)n1 (stereo not given)
21.9	90.2	O=C1CCCC2=C1C1(CCCC1)N=C(Nc1nc3ccccc3o1)N2
95.7	100	CC(=O)c1ccc(N2CCN(S(=O)(=O)c3ccc4c(c3)CC(=O)N4)CC2)cc1
68.5	100	Cc1ccc(NS(=O)(=O)c2ccc3c(c2)CCC(=O)N3)cc1C
100	100	CCCn1ncc(CN2CCCC(C(=O)c3cccc(OC(C)C)c3)C2)c1C (stereo not given)
90.3	100	Cc1ccc(C)c(OCCn2cc(C(=O)O)c3ccccc32)c1
43.5	80	Cc1cccc(-n2cnc3cc(C(=O)N4CCCCC4)ccc32)c1
100	100	O=C(CSc1cccc2cccnc12)N1CCCC1
91.6	100	O=C(CCNS(=O)(=O)c1cccc2nsnc12)N1CCN(c2ccccn2)CC1
88.5	99.8	COc1ccc(CSc2nc(C)cc(=O)[nH]2)cc1
75	89.4	O=S(=O)(NC1CCCCC1N1CCOCC1)c1ccc(Cl)cc1 (stereo not given)
98.3	100	O=c1[nH]c(SCc2ccc(Cl)cc2)nc2c1CCC2
23.6	90	CC[C@H]1CN2CCc3cc(OC)c(OC)cc3[C@@H]2C[C@@H]1C[C@H]1NCCc2cc(OC)c(OC)cc21

stability [%]	stability [1] [%]	Compound
56	100	Cc1cc(C)nc(-n2nc(C)c(Sc3ccc(F)cc3)c2N)n1
98.8	100	O=C(O)c1ccccc1OCc1ccccc1Br
96.5	100	O=C(O)c1cccnc1SCCc1ccccc1
33.4	80.1	CCN1CCN(c2nc3ccccc3nc2C(C#N)C(=O)OC2CCCCC2)CC1 (stereo not given)
70.8	100	NC(=O)C1CCN(c2nc(-c3ccc(Br)cc3)cs2)CC1
100	100	CC1CCCN(C(C(=O)Nc2ccc3c(c2)OCCO3)c2ccccc2)C1 (stereo not given)
55	66.5	O=c1[nH]c2c(s1)C(c1cccnc1)C1C3CCC(C3)C1S2 (stereo not given)
60.5	55.9	N#Cc1ccccc1CSc1nc2ncc(Br)cc2[nH]1
92.9	93.4	Brc1ccc2c(c1)CN1CCCC1=N2
100	100	CCc1oc2ccccc2c1C(=O)c1cc(Br)c(O)c(Br)c1
72.3	80.8	COc1ccc(S(=O)(=O)N2CCN(S(=O)(=O)c3ccc4c(c3)OCCO4)CC2)cc1
0.38	68.9	Brc1cc2c(cc1C1Nc3ccccc3C3C=CCC31)OCO2 (stereo not given)
100	100	Cc1cc(-c2nnc3n2CCCCC3)c(C)n1-c1ccccc1
99.4	100	CCCN(CCC)CCNC(=O)C1CCN(Cc2nc(-c3ccc(Cl)cc3)oc2C)CC1
57.4	100	c1ccc(-c2nnc(N3CCOCC3)nc2-c2ccccc2)cc1
91.3	94.9	O=S1(=O)Nc2c(ccc3cccnc23)-c2ccccc21
73	85.4	Cc1cc(C(=O)CN2C(=O)CCC2=O)c(C)n1Cc1ccccc1
9.08	100	CN(C)c1oc(-c2ccc(OCc3ccc(Cl)cc3)cc2)nc1C#N
